From patent publication US10285982B2, “3-(1H-pyrrolo[2,3-B]pyridin-2-yl)-1H-pyrazolo[3,4-C]pyridines and therapeutic uses thereof” (Samumed, LLC, priority 2015, dated 2019)

Assays:
Assay type in all cases: cell-based
[1] = test system: Wnt activity (Sp5-Luc reporter, SW480 colon carcinoma cells); assay: Wnt activity screening assay, Sp5-Luc reporter gene in SW480 cells; conditions: Homo sapiens; for inhibition at 10 µM: given where EC50 >10 μM, read-out: percent inhibition at 10 μM; for EC50: overnight incubation
Description: The screening assay for Wnt activity is described as follows. Reporter cell lines can be generated by stably transducing cancer cell lines (e.g., colon cancer) or primary cells (e.g., IEC-6 intestinal cells) with a lentiviral construct that includes a Wnt-responsive promoter driving expression of the firefly luciferase gene.
SW480 colon carcinoma cells were transduced with a lentiviral vector expressing luciferase with a human Sp5 promoter consisting of a sequence of eight TCF/LEF binding sites. SW480 cells stably expressing the Sp5-Luc reporter gene and a hygromycin resistance gene were selected by treatment with 150 μg/mL of hygromycin for 7 days. These stably transduced SW480 cells were expanded in cell culture and used for all further screening activities. Each compound was dissolved in DMSO as a 10 mM stock and used to prepare compound source plates. Serial dilution (1:3, 10-point dose-response curves starting from 10 μM) and compound transfer was performed using the ECHO 550 (Labcyte, Sunnyvale, Calif.) into 384-well white solid bottom assay plates (Greiner Bio-One) with appropriate DMSO backfill for a final DMSO concentration of 0.1%. For Sp5-Luc reporter gene assays, the cells were plated at 4,000 cells/well in 384-well plates with medium containing 1% fetal bovine serum and incubated overnight at 37° C. and 5% CO2. Following incubation, 20 μl of BrightGlo luminescence reagent (Promega) was added to each well of the 384-well assay plates. The plates were placed on an orbital shaker for 2 min and then luminescence was quantified using the Envision (Perkin Elmer) plate reader. Readings were normalized to DMSO only treated cells, and normalized activities were utilized for EC50 calculations using the dose-response log (inhibitor) vs. response-variable slope (four parameters) nonlinear regression feature available in GraphPad Prism 5.0 (or Dotmatics). For EC50 of >10 μM, the percent inhibition at 10 μM is provided.

SW480 colon cancer cells = assay: Cell viability assay (CellTiter-Blue); conditions: Homo sapiens, 96 h, four days; for inhibition at 10 µM: given where EC50 >10 μM, read-out: percent inhibition at 10 μM
Procedure: Representative compounds were screened using the following assay procedure to assess the effect on cell viability as described below.
Each compound was dissolved in DMSO as a 10 mM stock and used to prepare compound source plates. Serial dilution (1:3, 8-point dose-response curves from 10 μM to 0.0045 μM) and compound transfer was performed using the ECHO 550 (Labcyte, Sunnyvale, Calif.) into 96-well clear bottom, black-walled plates (Corning-Costar).
Approximately 2×10^3 SW480 colon cancer cells were seeded into each well and allowed to incubate in the presence or absence of compound for four days at 37° C./5% CO2. Eight replicates of DMSO-treated cells served as controls and cells treated with compound were performed in duplicate.
After incubation, 20 μL of CellTiter-Blue (Promega) was added to each well allowed to incubate for approximately 3 hours. This reagent was a buffered solution which contains resazurin, metabolically active cells were able to reduce rezarurin (blue) into resorufin (pink) which was highly fluorescent. This measured fluorescence was used as a readout for cell viability.
After incubation, the plates were read at Ex 560 nm Em 590 nm (Cytation 3, BioTek). Dose-response curves were generated and EC50 concentration values were calculated using non-linear regression curve fit in the GraphPad Prism (San Diego, Calif.) or Dotmatics' Studies Software (Bishops Stortford, UK). For EC50 of >10 μM, the percent inhibition at 10 μM is provided.

IL-6 (THP-1 cells) = assay: IL-6 inhibition in LPS-stimulated THP-1 cells (HTRF); conditions: Homo sapiens; for EC50: IL-6 in THP-1 cells, LPS 500 ng/mL, 22 hours; for inhibition at 10 µM: given where EC50 >10 μM, IL-6, THP-1 cells, LPS, read-out: percent inhibition at 10 μM
Procedure: Human monocyte cell line (THP-1 cells; Catalog # TIB-202, ATCC, Manassas, Va.) were cultured in Roswell Park Memorial Institute (RPMI) 1640 Medium (Catalog #21870-100, Buffalo, N.Y.) with 1% L-glutamine, 1% HEPES, 1% Sodium Pyruvate, 2% Sodium Bicarbonate supplemented with 100 units/mL penicillin, 50 μg/mL streptomycin, 2-mercaptoethanol (0.05 mM) [basal medium] and 10% fetal bovine serum (Catalog #16140089, Life Technologies, Carlsbad, Calif.) at 37° C. and 5% CO2.
THP-1 cells were cultured in basal media with 1% FBS for 24 hours before the start of the assay. Each compound was dissolved in DMSO as a 10 mM stock and used to prepare compound source plates. Serial dilution (1:3, 10-point dose-response curves starting from 10 μM) and compound transfer was performed using the ECHO 550 (Labcyte, Sunnyvale, Calif.) into 384-well white low volume assay plates (Greiner Bio-One) with appropriate DMSO backfill for a final DMSO concentration of 0.1%. THP-1 cells were plated at 5000 cells/well in the 384-well plates and incubated at 37° C. for 2 h. 500 ng/mL of LPS was added after 2 hours and cells were incubated for another 22 hours at 37° C. Plates were spun in a centrifuge for 1 minute at […] and a mixture of anti-IL6 XL665, and anti-IL6 Cryptate diluted in reconstitution buffer (Cisbio Inc.) was added to each well. Following incubation for 3 hrs at room temperature, Homogeneous Time-Resolved Fluorescence (HTRF) was measured using the Envision (Perkin Elmer) at 665 nm and […]. The ratio of fluorescence at 665 nm to 620 nm was used as a readout for IL6 quantification. All samples were processed in duplicate. Readings were normalized to DMSO treated cells and normalized activities were utilized for EC50 calculations using the dose-response log (inhibitor) vs. response-variable slope (four parameters) nonlinear regression feature available in GraphPad Prism 5.0 (or Dotmatics). For EC50 of >10 μM, the percent inhibition at 10 μM is provided.

Row | SMILES | inhibition at 10 µM [1] [%] | EC50 [1] [µM] | inhibition at 10 µM (SW480 colon cancer cells) [%] | EC50 (SW480 colon cancer cells) [µM] | EC50 (IL-6 (THP-1 cells)) [µM] | inhibition at 10 µM (IL-6 (THP-1 cells)) [%]
1 | CCC(=O)Nc1cncc(-c2cc3c(-c4cc5c(-c6cccc(F)c6)ccnc5[nH]4)n[nH]c3cn2)c1 [Compound 1, N-(5-(3-(4-(3-Fluorophenyl)-1H-pyrrolo[2,3-b]pyridin-2-yl)-1H-pyrazolo [3,4-c]pyridin-5-yl)pyridin-3-yl)propionamide] | 24.3 | > 10 | 36.3 | > 10 | > 10 | 23.6
2 | Fc1cccc(-c2ccnc3[nH]c(-c4n[nH]c5cnc(-c6cccnc6)cc45)cc23)c1 [Compound 4, 3-(4-(3-Fluorophenyl)-1H-pyrrolo[2,3-b]pyridin-2-yl)-5-(pyridin-3-yl)-1H-pyrazolo[3,4-c]pyridine] | – | 1.21 | – | 2.73 | > 10 | 21.3
3 | CC(C)(C)C(=O)Nc1cncc(-c2cc3c(-c4cc5c(-c6cccc(F)c6)ccnc5[nH]4)n[nH]c3cn2)c1 [Compound 8, N-(5-(3-(4-(3-Fluorophenyl)-1H-pyrrolo[2,3-b]pyridin-2-yl)-1H-pyrazolo [3,4-c]pyridin-5-yl)pyridin-3-yl)pivalamide] | – | 0.073 | – | 0.723 | > 10 | 45.4
4 | O=C(Nc1cncc(-c2cc3c(-c4cc5c(-c6cccc(F)c6)ccnc5[nH]4)n[nH]c3cn2)c1)c1ccccc1 [Compound 11, N-(5-(3-(4-(3-Fluorophenyl)-1H-pyrrolo[2,3-b]pyridin-2-yl)-1H-pyrazolo [3,4-c]pyridin-5-yl)pyridin-3-yl)benzamide] | 8.2 | > 10 | 46.8 | > 10 | > 10 | 38.9
5 | Fc1cccc(-c2ccnc3[nH]c(-c4n[nH]c5cnc(-c6cncc(CN7CCCC7)c6)cc45)cc23)c1 [Compound 14, 3-(4-(3-Fluorophenyl)-1H-pyrrolo[2,3-b]pyridin-2-yl)-5-(5-(pyrrolidin-1-ylmethyl)pyridin-3-yl)-1H-pyrazolo[3,4-c]pyridine] | 22.8 | > 10 | 13.3 | > 10 | > 10 | 21.6
6 | O=C(Nc1cncc(-c2cc3c(-c4cc5c(-c6cccc(F)c6)ccnc5[nH]4)n[nH]c3cn2)c1)C1CC1 [Compound 20, N-(5-(3-(4-(3-Fluorophenyl)-1H-pyrrolo[2,3-b]pyridin-2-yl)-1H-pyrazolo [3,4-c]pyridin-5-yl)pyridin-3-yl)cyclopropanecarboxamide] | – | 0.097 | – | 0.159 | > 10 | 42.8
7 | Fc1cccc(-c2ccnc3[nH]c(-c4n[nH]c5cnc(-c6cncnc6)cc45)cc23)c1 [Compound 27, 3-(4-(3-Fluorophenyl)-1H-pyrrolo[2,3-b]pyridin-2-yl)-5-(pyrimidin-5-yl)-1H-pyrazolo[3,4-c]pyridine] | – | 0.507 | 41.2 | > 10 | > 10 | 43.9
8 | CC(C)CC(=O)Nc1cncc(-c2cc3c(-c4cc5c(-c6ccc(F)cc6)ccnc5[nH]4)n[nH]c3cn2)c1 [Compound 30, N-(5-(3-(4-(4-Fluorophenyl)-1H-pyrrolo[2,3-b]pyridin-2-yl)-1H-pyrazolo [3,4-c]pyridin-5-yl)pyridin-3-yl)-3-methylbutanamide] | – | 0.444 | – | 2.47 | > 10 | 35.6
9 | CC(C)C(=O)Nc1cncc(-c2cc3c(-c4cc5c(-c6ccc(F)cc6)ccnc5[nH]4)n[nH]c3cn2)c1 [Compound 37, N-(5-(3-(4-(4-Fluorophenyl)-1H-pyrrolo[2,3-b]pyridin-2-yl)-1H-pyrazolo [3,4-c]pyridin-5-yl)pyridin-3-yl)isobutyramide] | – | 0.671 | – | 2.69 | > 10 | 25.4
10 | O=C(Nc1cncc(-c2cc3c(-c4cc5c(-c6ccc(F)cc6)ccnc5[nH]4)n[nH]c3cn2)c1)C1CCC1 [Compound 49, N-(5-(3-(4-(4-Fluorophenyl)-1H-pyrrolo[2,3-b]pyridin-2-yl)-1H-pyrazolo [3,4-c]pyridin-5-yl)pyridin-3-yl)cyclobutanecarboxamide] | – | 0.747 | – | 4.64 | > 10 | 26.1
11 | Nc1cncc(-c2cc3c(-c4cc5c(-c6ccccc6F)ccnc5[nH]4)n[nH]c3cn2)c1 [Compound 59, 5-(3-(4-(2-Fluorophenyl)-1H-pyrrolo[2,3-b]pyridin-2-yl)-1H-pyrazolo[3,4-c]pyridin-5-yl)pyridin-3-amine] | 14.3 | > 10 | 16.4 | > 10 | > 10 | 37.3
12 | CCNCc1cncc(-c2cc3c(-c4cc5c(-c6ccccc6F)ccnc5[nH]4)n[nH]c3cn2)c1 [Compound 62, N-((5-(3-(4-(2-Fluorophenyl)-1H-pyrrolo[2,3-b]pyridin-2-yl)-1H-pyrazolo [3,4-c]pyridin-5-yl)pyridin-3-yl)methyl)ethanamine] | 6.8 | > 10 | 15.7 | > 10 | > 10 | 24.8
13 | O=C(Cc1ccccc1)Nc1cncc(-c2cc3c(-c4cc5c(-c6ccccc6F)ccnc5[nH]4)n[nH]c3cn2)c1 [Compound 66, N-(5-(3-(4-(2-Fluorophenyl)-1H-pyrrolo[2,3-b]pyridin-2-yl)-1H-pyrazolo [3,4-c]pyridin-5-yl)pyridin-3-yl)-2-phenylacetamide] | – | 0.139 | – | 0.62 | > 10 | 35.8
14 | CN(C)Cc1cncc(-c2cc3c(-c4cc5c(-c6ccccc6F)ccnc5[nH]4)n[nH]c3cn2)c1 [Compound 69, 1-(5-(3-(4-(2-Fluorophenyl)-1H-pyrrolo[2,3-b]pyridin-2-yl)-1H-pyrazolo [3,4-c]pyridin-5-yl)pyridin-3-yl)-N,N-dimethylmethanamine] | 11.3 | > 10 | 13.2 | > 10 | > 10 | 17.4
